One test has as its system BH3/Bcl-xL binding. Nature of the test: SELDI binding assay, unlabeled Bak BH3 peptide on immobilized Bcl-xL-His6. The text has this:
To test the possibility that BH3Is target the OREGON GREEN moiety of the fluorescently labeled BH3 peptide, a novel BH3/Bcl-xL binding assay using unlabeled BH3 peptide was designed. In this assay Bcl-xL was covalently attached to a surface-enhanced laser desorption/ionization (SELDI) chip, and binding of the unlabelled BH3 peptide to the immobilized protein was monitored by mass spectrometry. Specifically, purified recombinant GST-Bcl-2 and BCL-xL-His6 were coupled through their primary amines to SELDI chip surfaces derivatized with carbonyldiimidazole (Ciphergen). Bak BH3 peptide was then added (in a total volume of 1 μl) for 12 hours at 4° C. in a humidified chamber, to allow binding to each spot of the SELDI chip. The chip was then washed with alternating high and low pH-0.1M sodium acetate with 0.5M NaCl, followed by 0.01M HEPES; pH 7.3. The samples were embedded in α-cyanno-4-hydroxycinnamaic acid matrix and analyzed for mass by MALDI TOF. An average of 100 laser shots at a constant setting were collected over 20 spots in each sample.

In a further test the target is T1, Bcl-xL (Homo sapiens, UniProt Q07817, DEL45-84).
T1 construct: His6 (C); made in house
The test can be described thus: Bcl-xL pore formation, carboxyfluorescein release from liposomes. The following applies: 5 μM Bcl-xL-His6, pH 4.0. The class given is biochemical. The procedure: Bcl-xL forms membrane pores, and the formation of these pores may play a role in Bcl-xL's ability to regulate apoptosis. Thus, the effects of the BH3Is on pore formation by Bcl-xL were tested (Minn, et al., Nature 385:353-7, 1997; Schendel et al., Proc. Natl. Acad. Sci. USA 94:5113-8, 1997; Minn et al., EMBO J. 18:632-43,1999; and Matsuyama et al., J. Biol. Chem. 273:30995-1001, 1998). Liposomes containing 20 mM of 5,6-carboxyfluorescein were prepared as previously described (Antonsson, et al., Science 277:370-2,1997). For Bcl-xL pore formation 5 μM Bcl-xL-His6 was preincubated with BH3I-2 or Bak BH3 peptide in 50 μl of 5 mM sodium citrate, 150 mM NaCl, pH 4.0 buffer for 10 min at 25° C., followed by addition of 5 μl of undiluted liposomes. Prior to determination of the fluorescence pH was adjusted by adding 10 μl of 1.5 M Tris-HCl, pH 7.5.

T1 sequence (Q07817 with tags, fused parts or gaps DEL45-84 limits assumed): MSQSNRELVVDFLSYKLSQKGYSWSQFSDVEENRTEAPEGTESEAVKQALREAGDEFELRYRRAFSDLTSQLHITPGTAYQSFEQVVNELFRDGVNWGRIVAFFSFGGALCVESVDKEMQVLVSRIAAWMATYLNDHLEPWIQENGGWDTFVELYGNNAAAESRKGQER

Consider “KGGGQVGRQLAIIGDDINR (SEQ ID NO: 2) (BAK) [BH3 peptide, nineteen amino acid Bak peptide corresponding to the BH3 domain of Bak, reference compound]”, for which the “binding of BH3 peptide to Bcl-xL-modified surface” value in the test with BH3/Bcl-xL binding was “bound to the Bcl-xL-modified surface in a dose-dependent fashion”. The “Bcl-xL-mediated release of carboxyfluorescein from liposomes” value with Bcl-xL is recorded as “Neither BH3Is nor BH3 peptide affected”.

The record behind these values is US7390836B2, “Small molecules used to increase cell death” (priority 1999, dated 2008).
